One block for each compound: values may come before it.
Assays:
[1] = Mass median aerodynamic diameter (MMAD) of aerosol, rotating brush generator and TSI Aerodynamic Particle Sizer 3321; assay type: physicochemical; details: for GSD: second figure of the MMAD/GSD cell
[2] = intravenous; Andrews et al., 1982; Schweizer et al., 2018; cited from earlier work
[3] = Specific surface area (SSA) by BET sorptometry; assay type: physicochemical; details: for Surface Area: Table 8
Experimental: The BET specific surface area test procedure is a compendial method included in both the United States Pharmacopeia and the European Pharmacopeia.
(§1) Approximately 63 precipitation runs (approximately 500 mg to 10 grams) were conducted on the RC612B precipitation unit, according to examples provided above. Variables modified between each precipitation are detailed in Tables 1-3 below. The precipitates were analyzed by laser diffraction to determine PSD, BET sorptometry to determine SSA, and SEM to determine habit and support PSD and SSA data.
SSA determination analyses were conducted on a Porous Materials, Inc., Automated BET Sorptometer BET-202A according to manufacturer's instructions.

Tapped density = assay type: physicochemical; details: for Bulk Tapped Density: Table 8
Description: As used herein, the tapped density of a particle is obtained by mechanically tapping a graduated cylinder containing the sample until little further volume change is observed.

[4] = target: T1, TMEM16A (Anoctamin-1, Ano1) (Homo sapiens, UniProt Q5XXA6); details: Miner et al., 2019; cited from earlier work
T1 sequence (Q5XXA6 1-986): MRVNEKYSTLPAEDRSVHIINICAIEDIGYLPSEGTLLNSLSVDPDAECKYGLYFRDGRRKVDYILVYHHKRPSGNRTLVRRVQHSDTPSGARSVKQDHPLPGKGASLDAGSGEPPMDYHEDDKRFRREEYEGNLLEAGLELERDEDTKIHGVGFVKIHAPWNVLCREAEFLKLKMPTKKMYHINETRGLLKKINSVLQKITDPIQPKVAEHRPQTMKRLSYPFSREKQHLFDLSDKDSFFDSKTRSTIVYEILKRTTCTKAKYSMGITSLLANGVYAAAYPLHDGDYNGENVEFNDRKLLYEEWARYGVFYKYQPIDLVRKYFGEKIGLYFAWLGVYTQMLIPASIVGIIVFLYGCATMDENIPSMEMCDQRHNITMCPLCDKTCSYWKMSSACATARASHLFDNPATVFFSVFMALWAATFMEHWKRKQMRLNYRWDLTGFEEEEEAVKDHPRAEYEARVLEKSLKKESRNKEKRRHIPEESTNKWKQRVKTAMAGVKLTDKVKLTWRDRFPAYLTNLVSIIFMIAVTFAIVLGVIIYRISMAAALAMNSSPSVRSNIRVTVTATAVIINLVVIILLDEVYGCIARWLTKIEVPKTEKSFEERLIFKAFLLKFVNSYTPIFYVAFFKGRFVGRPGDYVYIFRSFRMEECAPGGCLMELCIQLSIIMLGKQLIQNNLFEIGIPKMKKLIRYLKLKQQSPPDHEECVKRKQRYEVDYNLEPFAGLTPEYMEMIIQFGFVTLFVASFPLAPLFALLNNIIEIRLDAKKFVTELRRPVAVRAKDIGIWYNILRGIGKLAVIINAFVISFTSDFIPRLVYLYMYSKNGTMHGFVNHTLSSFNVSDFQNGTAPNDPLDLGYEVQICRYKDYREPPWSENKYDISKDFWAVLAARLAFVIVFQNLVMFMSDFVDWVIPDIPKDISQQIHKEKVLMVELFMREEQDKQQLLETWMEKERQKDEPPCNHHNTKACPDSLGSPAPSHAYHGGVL

[5] = Bulk density (not tapped); assay type: physicochemical
Description: As used herein, the bulk density (not tapped) of a particle is the ratio of the mass to the volume (including the interparticulate void volume) of an untapped powder sample.

[6] = Particle size distribution (PSD) by laser diffraction, Malvern Mastersizer 3000 Aero S; assay type: physicochemical; details: for Mean Geometric Particle size Dv50: Table 8
Experimental: as §1
PSD analyses were conducted on a Malvern Mastersizer™ 3000 using the Aero S™ dispersion unit according to manufacturer's instructions.

[7] = Dissolution in 40% isopropanol 37° C., rotating paddle 50 rpm; assay type: physicochemical
Experimental: Exemplary processed products were also used for dissolution for comparison to unprocessed/raw material. Dissolution studies were carried out in 40% isopropanol 37° C. with a rotating paddle at 50 rpm.

[8] = listed as Milled (micronized) Niclosamide Drug Substance
[9] = volume distribution, unit not given in Tables 1-3, 6, 7

MMAD ([1]; aerosol from rotating brush generator): 2.64 microns
GSD [1]: 1.82
Surface Area [3]: 1.359 m2/gm
Bulk Tapped Density (Tapped density): 0.57 gm/cm3
Bulk Density ([5]; Table 8): 0.45 gm/cm3
Mean Geometric Particle size Dv50 [6]: 21.1 microns
Dissolution in 40% isopropanol 37C 50 rpm rotating paddle ([7]; 5 min): 1.7%
Dissolution in 40% isopropanol 37C 50 rpm rotating paddle ([7]; 15 min): 3.8%
Dissolution in 40% isopropanol 37C 50 rpm rotating paddle ([7]; 30 min): 6.5%
Dissolution in 40% isopropanol 37C 50 rpm rotating paddle ([7]; 60 min): 11.2%
Dissolution in 40% isopropanol 37C 50 rpm rotating paddle ([7]; 90 min): 15%
Dissolution in 40% isopropanol 37C 50 rpm rotating paddle ([7]; 120 min): 20.6%
Compound: O=C(Nc1ccc([N+](=O)[O-])cc1Cl)c1cc(Cl)ccc1O [Niclosamide Drug Substance, niclosamide]
Toxicity when administered intravenously [2]: substantial toxicity
Inhibition of TMEM16A [4]: potent inhibitor

SSA ([3]; BET, Tables 4, 5): 2.684 m^2/g
Compound: NCCO.O=C(Nc1ccc([N+](=O)[O-])cc1Cl)c1cc(Cl)ccc1O [Niclosamide ethanolamine, niclosamide ethanolamine]

GSD [1, 8]: 1.74
Surface Area [3, 8]: 3.264 m2/gm
Bulk Tapped Density (Tapped density; [8]): 0.62 gm/cm3
Tapped Density (Tapped density; Tables 1-3 print no unit): 0.619
Bulk Density ([5]; Table 8, listed as Milled (micronized) Niclosamide Drug Substance): 0.49 gm/cm3
Bulk Density ([5]; not tapped, Tables 1-3 print no unit): 0.486
Mean Geometric Particle size Dv50 [6, 8]: 2.97 microns
PSD-Mastersizer Dv-10 [6, 9]: 0.765
PSD-Mastersizer Dv-50 [6, 9]: 2.97
PSD-Mastersizer Dv-90 [6, 9]: 6.39
Dissolution in 40% isopropanol 37C 50 rpm rotating paddle ([7]; 5 min, listed as Milled (micronized) Niclosamide Drug Substance): 2.9%
Dissolution in 40% isopropanol 37C 50 rpm rotating paddle ([7]; 15 min, listed as Milled (micronized) Niclosamide Drug Substance): 4.7%
Dissolution in 40% isopropanol 37C 50 rpm rotating paddle ([7]; 30 min, listed as Milled (micronized) Niclosamide Drug Substance): 8.4%
Dissolution in 40% isopropanol 37C 50 rpm rotating paddle ([7]; 60 min, listed as Milled (micronized) Niclosamide Drug Substance): 12.7%
Dissolution in 40% isopropanol 37C 50 rpm rotating paddle ([7]; 90 min, listed as Milled (micronized) Niclosamide Drug Substance): 17.3%
Dissolution in 40% isopropanol 37C 50 rpm rotating paddle ([7]; 120 min, listed as Milled (micronized) Niclosamide Drug Substance): 23.3%
Compound: O=C(Nc1ccc([N+](=O)[O-])cc1Cl)c1cc(Cl)ccc1O [Micronized Niclosamide API, niclosamide]

Reference: patent US20230414510A1 (CRITITECH, INC., priority 2020, published 2023)
